{"source": "patent US20090239891A1", "about": "(priority 2006, published 2009)", "test": "Analgesic effect (% MPE) by tail flick method after intravenous injection", "assay_type": "in vivo", "details": "mice"}
{"substance": "buprenorphine hydrochloride", "values": [{"measurement": "% MPE", "setting": "0.08 hours after i.v. 2.4 mg/kg", "result": 0, "unit": "%"}, {"measurement": "% MPE", "setting": "0.25 hours after i.v. 2.4 mg/kg", "result": 53.7, "unit": "%"}, {"measurement": "% MPE", "setting": "0.5 hours after i.v. 2.4 mg/kg", "result": 96.3, "unit": "%"}, {"measurement": "% MPE", "setting": "1 hour after i.v. 2.4 mg/kg", "result": 100, "unit": "%"}, {"measurement": "% MPE", "setting": "2 hours after i.v. 2.4 mg/kg", "result": 77.4, "unit": "%"}, {"measurement": "% MPE", "setting": "3 hours after i.v. 2.4 mg/kg", "result": 93.3, "unit": "%"}, {"measurement": "% MPE", "setting": "5 hours after i.v. 2.4 mg/kg", "result": 100, "unit": "%"}, {"measurement": "% MPE", "setting": "7 hours after i.v. 2.4 mg/kg", "result": 72.7, "unit": "%"}, {"measurement": "% MPE", "setting": "9 hours after i.v. 2.4 mg/kg, hydrochloride, 2.4 mg/kg", "result": 54, "unit": "%"}, {"measurement": "% MPE", "setting": "9 hours after i.v. 2.4 mg/kg, listed as buprenorphine, hydrochloride, 2.4 mg/kg", "result": 54.4, "unit": "%"}, {"measurement": "% MPE", "setting": "12 hours after i.v. 2.4 mg/kg, hydrochloride, 2.4 mg/kg", "result": 0, "unit": "%"}, {"measurement": "% MPE", "setting": "12 hours after i.v. 2.4 mg/kg, listed as buprenorphine, hydrochloride, 2.4 mg/kg", "result": 8.1, "unit": "%"}, {"measurement": "% MPE", "setting": "18 hours after i.v. 2.4 mg/kg", "result": 0, "unit": "%"}, {"measurement": "% MPE", "setting": "24 hours after i.v. 2.4 mg/kg", "result": 0, "unit": "%"}, {"measurement": "onset of analgesic effect", "setting": "after i.v. 2.4 mg/kg", "result": 15, "unit": "min"}, {"measurement": "duration of analgesic effect", "setting": "after i.v. bolus 2.4 mg/kg", "result": 9, "unit": "h"}, {"measurement": "analgesic effect observed", "setting": "between 12 and 24 hours after i.v. 2.4 mg/kg", "result": "No analgesic effect"}]}
